Measurements from US8288552B2, “Dihydropyridone amidesas P2X7 modulators” (Roche Palo Alto LLC, priority 2008, dated 2012).

Target: T1, P2X7 (UniProt Q99572)
T1 sequence (Q99572 1-595): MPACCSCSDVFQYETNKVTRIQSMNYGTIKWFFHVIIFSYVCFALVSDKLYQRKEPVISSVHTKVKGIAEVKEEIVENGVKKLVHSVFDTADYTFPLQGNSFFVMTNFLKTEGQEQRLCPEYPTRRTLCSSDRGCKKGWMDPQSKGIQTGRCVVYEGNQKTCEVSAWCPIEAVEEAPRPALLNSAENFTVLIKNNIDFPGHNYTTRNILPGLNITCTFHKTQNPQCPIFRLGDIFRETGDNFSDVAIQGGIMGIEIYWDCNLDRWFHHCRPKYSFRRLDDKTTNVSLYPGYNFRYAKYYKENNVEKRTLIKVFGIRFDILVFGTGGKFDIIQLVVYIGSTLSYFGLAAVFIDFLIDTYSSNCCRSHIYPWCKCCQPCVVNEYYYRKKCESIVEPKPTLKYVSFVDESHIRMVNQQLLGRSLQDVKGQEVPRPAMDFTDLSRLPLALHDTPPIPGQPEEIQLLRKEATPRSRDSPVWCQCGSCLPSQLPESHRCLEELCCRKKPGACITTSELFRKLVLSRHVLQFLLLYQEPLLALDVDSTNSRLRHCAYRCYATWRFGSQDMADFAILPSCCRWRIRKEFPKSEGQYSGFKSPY
Assay: P2X7 pKi of Table 1
Format: cell-based
In short: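 Human P2X7 in 1321N1 cells and rat P2X7 in HEK293 cells, loaded with fluo-3 for 1 hr at 37° C, then exposed to antagonist for 20 min at room temperature. BzATP agonist was used at 100 μM final (human) or 5 μM final (rat), with fluorescence read for 5 min. The response was normalized to maximal fluorescence evoked by 5 μM ionomycin.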

| SMILES | pKi |
| --- | --- |
| Cc1cc2c(cc1NC(=O)C1=CNC(=O)C[C@H]1c1ccc(F)cc1)OCCO2 [Compound 140, (S)-4-(4-Fluoro-phenyl)-6-oxo-1,4,5,6-tetrahydro-pyridine-3-carboxylic acid(7-methyl-2,3-dihydro-benzo[1,4]dioxin-6-yl)-amide] | 6.94 |
| Cc1cc(F)c(OCCO)cc1NC(=O)C1=CNC(=O)C[C@H]1c1ccc(F)cc1 [Compound 141, (S)-4-(4-Fluoro-phenyl)-6-oxo-1,4,5,6-tetrahydro-pyridine-3-carboxylic acid[4-fluoro-5-(2-hydroxy-ethoxy)-2-methyl-phenyl]-amide] | 7.285 |
| Cc1cc(F)c(OCCO)cc1NC(=O)C1=CN(C)C(=O)C[C@H]1c1ccc(F)cc1 [Compound 143, (S)-4-(4-Fluoro-phenyl)-1-methyl-6-oxo-1,4,5,6-tetrahydro-pyridine-3-carboxylic acid[4-fluoro-5-(2-hydroxy-ethoxy)-2-methyl-phenyl]-amide] | 6.535 |
| CCN1C=C(C(=O)Nc2cc(OC)c(OC)cc2C)[C@H](c2ccc(F)cc2)CC1=O [Compound 144, (S)-1-Ethyl-4-(4-fluoro-phenyl)-6-oxo-1,4,5,6-tetrahydro-pyridine-3-carboxylic acid(4,5-dimethoxy-2-methyl-phenyl)-amide] | 7.06 |
| CCOC(=O)Cc1ccc(C)c(NC(=O)C2=CNC(=O)C[C@H]2c2ccc(F)cc2)c1 [Compound 145, (3-{[(S)-4-(4-Fluoro-phenyl)-6-oxo-1,4,5,6-tetrahydro-pyridine-3-carbonyl]-amino}-4-methyl-phenyl)-acetic acid ethyl ester] | 6.55 |
| COc1cc(C)c(NC(=O)C2=CN(CCO)C(=O)C[C@H]2c2ccc(F)cc2)cc1OC [Compound 146, (S)-4-(4-Fluoro-phenyl)-1-(2-hydroxy-ethyl)-6-oxo-1,4,5,6-tetrahydro-pyridine-3-carboxylic acid(4,5-dimethoxy-2-methyl-phenyl)-amide] | 7.71 |
| COC[C@@H](O)COc1cc(NC(=O)C2=CNC(=O)C[C@H]2c2ccc(F)cc2)c(C)cc1Cl [Compound 148, (S)-4-(4-Fluoro-phenyl)-6-oxo-1,4,5,6-tetrahydro-pyridine-3-carboxylic acid[4-chloro-5-((S)-2-hydroxy-3-methoxy-propoxy)-2-methyl-phenyl]-amide] | 6.49 |

Results, then the compound that gave them:

| pKi | SMILES |
| --- | --- |
| 6.835 | Cc1cc(Cl)c(OCCO)cc1NC(=O)C1=CN(C)C(=O)C[C@H]1c1ccc(F)cc1 [Compound 142, (S)-4-(4-Fluoro-phenyl)-1-methyl-6-oxo-1,4,5,6-tetrahydro-pyridine-3-carboxylic acid[4-chloro-5-(2-hydroxy-ethoxy)-2-methyl-phenyl]-amide] |
| 5.85 | COC[C@@H](O)COc1cc(NC(=O)C2=CN(C)C(=O)C[C@H]2c2ccc(F)cc2)c(C)cc1Cl [Compound 147, (S)-4-(4-Fluoro-phenyl)-1-methyl-6-oxo-1,4,5,6-tetrahydro-pyridine-3-carboxylic acid[4-chloro-5-((S)-2-hydroxy-3-methoxy-propoxy)-2-methyl-phenyl]-amide] |
| 6.035 | COC[C@@H](O)COc1cc(NC(=O)C2=CN(C)C(=O)C[C@H]2c2cccc(F)c2)c(C)cc1Cl [Compound 149, (S)-4-(3-Fluoro-phenyl)-1-methyl-6-oxo-1,4,5,6-tetrahydro-pyridine-3-carboxylic acid[4-chloro-5-((S)-2-hydroxy-3-methoxy-propoxy)-2-methyl-phenyl]-amide] |
